# Target: T1, type VI-S porcine pancreatic lipase (Sus scrofa, UniProt P00591)
# T1 construct: purchased Sigma type VI-S (catalogue number not given)
# T1 sequence (P00591 1-450): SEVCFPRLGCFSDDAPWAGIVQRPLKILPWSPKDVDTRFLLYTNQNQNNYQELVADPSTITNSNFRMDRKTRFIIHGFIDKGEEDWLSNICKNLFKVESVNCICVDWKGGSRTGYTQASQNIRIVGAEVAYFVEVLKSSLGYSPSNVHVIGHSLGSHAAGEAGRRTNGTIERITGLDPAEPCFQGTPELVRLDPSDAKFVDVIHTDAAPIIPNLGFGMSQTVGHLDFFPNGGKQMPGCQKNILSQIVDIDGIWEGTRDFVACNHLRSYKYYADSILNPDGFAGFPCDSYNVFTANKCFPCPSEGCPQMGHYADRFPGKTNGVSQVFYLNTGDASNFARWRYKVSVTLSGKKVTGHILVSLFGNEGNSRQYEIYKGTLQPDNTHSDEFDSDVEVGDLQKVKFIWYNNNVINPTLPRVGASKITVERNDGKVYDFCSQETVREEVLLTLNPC
# Test: Pancreatic lipase assay (pH-stat titration, triolein substrate)
# Assay type: biochemical
# Parameters: Ymax: unit not given here
# Conditions: for k / Ymax: 7.0 nM lipase, 700 nM inhibitor, pH 8.0; for k: k fitted for the 12.5 min after inhibitor addition, Y=Ymax*(1-exp(-k*X)); for inhibition at 0.7 µM: 12.5 min; for Ymax: Ymax of the fit Y=Ymax*(1-exp(-k*X))
# Experimental: The use of a pancreatic lipase assay has been described in the literature (Hadvary, P. et al. Biochem. J. (1988) 256: 357-361; Hadvary, P. et al. Biochem. J. (1991) 266:2021-2027). Pancreatic lipase activity was measured using a 718 Stat Titrino (Brinkmann) programmed to maintain a pH of 8.0 using 0.1 N NaOH. The substrate mixture (pH 8) contained 1 mM taurochenodeoxycholate (Sigma), 9 mM taurodeoxycholate (Sigma), 0.1 mM cholesterol (Sigma), 1 mM phosphatidylcholine (Sigma), 1.5% BSA, 2 mM Tris base, 100 mM NaCl, 10 mM CaCl2, and 3% triolein (Sigma). The mixture (5 mL) was emulsified via sonication at room temperature, and added to the titration vessel with rapid stirring. The Stat Titrino was turned on and lipase (7.0 nM type VI-S porcine pancreatic lipase (Sigma) dissolved in PBS) was added to the vessel. After 10 min, inhibitor (700 nM dissolved in 100% DMSO) was added and the reaction continued for an additional 12.5 min. The k values were determined for the 12.5 min after the addition of the inhibitor using a one phase exponential association equation, Y=Ymax*(1−exp(−k*X)), k values for lipase alone were 0.0004±0.0001 sec. The k values for compounds disclosed herein are >0.0004±0.0001 sec.
Structure (SMILES),k,inhibition at 0.7 µM,Ymax
"CCCCCCCCNc1nc2sc(C(=O)NCc3ccncc3)c(C)c2c(=O)o1 [Entry 55, 5-Methyl-2-octylamino-4-oxo-4H-thieno[2,3-d][1,3]oxazine-6-carboxylic acid (pyridin-4-ylmethyl)-amide]",0.754 10-3.s-1,,
"CCCCCCCCOc1nc2sc(CCCCCCCC)cc2c(=O)o1 [Entry 85, 6-Octyl-2-octyloxy-thieno[2,3-d][1,3]oxazin-4-one]",,96.1%,
"CCCCCCCCNC(=O)N(CCCCCCCC)c1nc2sc(C(=O)OCc3ccccc3)c(C)c2c(=O)o1 [Entry 13, 2-(1,3-Dioctyl-ureido)-5-methyl-4-oxo-4H-thieno[2,3-d][1,3]oxazine-6-carboxylic acid benzyl ester]",0.414 10-3.s-1,,
"CCCCCCCCNc1nc2sc(C(=O)NC3CCCCC3)c(C)c2c(=O)o1 [Entry 38, 5-Methyl-2-octylamino-4-oxo-4H-thieno[2,3-d][1,3]oxazine-6-carboxylic acid cyclohexylamide]",2.173 10-3.s-1,,0.045
CCCCCCCCc1cc2c(=O)oc(OCCCC)nc2s1 [Entry 95],,60.3%,
"CCCCCCCNc1nc2sc(C(=O)OCc3ccccc3)c(C)c2c(=O)o1 [Entry 17, 2-Heptylamino-5-methyl-4-oxo-4H-thieno[2,3-d][1,3]oxazine-6-carboxylic acid benzyl ester]",7.74 10-3.s-1,,
"CCCCCCCCOc1nc2sc(CCCC)cc2c(=O)o1 [Entry 75, 6-Butyl-2-octyloxy-thieno[2,3-d][1,3]oxazin-4-one]",2.219 10-3.s-1,,0.054
"CCCCCCCCCCCc1nc2sc(CCCCCCC)cc2c(=O)o1 [Entry 67, 6-Heptyl-2-undecyl-thieno[2,3-d][1,3]oxazin-4-one]",0.064 10-3.s-1,,10.973
"CCCCCCCCNc1nc2sc(C(=O)N(C)Cc3cccc(C)n3)c(C)c2c(=O)o1 [Entry 49, 5-Methyl-2-octylamino-4-oxo-4H-thieno[2,3-d][1,3]oxazine-6-carboxylic acid methyl-(6-methyl-pyridin-2-ylmethyl)-amide]",0.022 10-3.s-1,,
"CCCCCCC(C)Nc1nc2sc(C(=O)OCc3ccccc3)c(C)c2c(=O)o1 (stereo not drawn) [Entry 71, 5-Methyl-2-(1-methylheptylamino)-4-oxo-4H-thieno[2,3-d][1,3]oxazine-6-carboxylic acid benzyl ester]",0.086 10-3.s-1,,14.657
"CCCCCCCc1cc2c(=O)oc(OC(C)CCCCCC)nc2s1 (stereo not drawn) [Entry 91, 6-Heptyl-2-(1-methylheptyloxy)thieno[2,3-d][1,3]oxazin-4-one]",,12.4%,
"CCCCCCCCNc1nc2sc(C(=O)N3CCN(CCN4CCCCC4)CC3)c(C)c2c(=O)o1 [Entry 53, 5-Methyl-2-octylamino-6-[4-(2-piperidin-1-yl-ethyl)-piperazine-1-carbonyl]-thieno[2,3-d][1,3]oxazin-4-one]",0.166 10-3.s-1,,
"CCCCCCCCNc1nc2sc(C(=O)OCc3ccccc3)c(C)c2c(=O)s1 [Entry 56, 5-Methyl-2-octylamino-4-oxo-4H-thieno[2,3-d][1,3]thiazine-6-carboxylic acid benzyl ester]",0.114 10-3.s-1,,
"CCCCCCCCOc1nc2sc(CCCCCCC)cc2c(=O)o1 [Entry 68, 6-Heptyl-2-octyloxy-thieno[2,3-d][1,3]oxazin-4-one]",5.825 10-3.s-1,78.9%,0.020
"CCCCCCCCNc1nc2sc(C(=O)NCc3ccccc3)c(C)c2c(=O)o1 [Entry 21, 5-Methyl-2-octylamino-4-oxo-4H-thieno[2,3-d][1,3]oxazine-6-carboxylic acid benzylamide]",1.079 10-3.s-1,,
"CCCCCCCOC(=O)c1sc2nc(OCCCCCCC)oc(=O)c2c1C [Entry 10, 5-Methyl-2-heptyloxy-4-oxo-4H-thieno[2,3-][1,3]oxazine-6-carboxylic acid heptyl ester]",1.349 10-3.s-1,,
"CCCCCCCCCCCCCCCCNC(=O)c1sc2nc(NCCCCCCCC)oc(=O)c2c1C [Entry 30, 5-Methyl-2-octylamino-4-oxo-4H-thieno[2,3-d][1,3]oxazine-6-carboxylic acid hexadecylamide]",0.433 10-3.s-1,,
"CCCCCCCCN(CCCCCCCC)c1nc2sc(C(=O)OCc3ccccc3)c(C)c2c(=O)o1 [Entry 60, 2-Dioctylamino-5-methyl-4-oxo-4H-thieno[2,3-d][1,3]oxazine-6-carboxylic acid benzyl ester]",0.013 10-3.s-1,,
"CCCCCCCCOc1nc2sc(C(=O)OCc3ccccc3)c(C)c2c(=O)o1 [Entry 5, 5-Methyl-2-octyloxy-4-oxo-4H-thieno[2,3-d][1,3]oxazine-6-carboxylic acid benzyl ester]",0.649 10-3.s-1,,
"CCCCCCCCOc1nc2sc(C(C)CCCC(C)(C)OC)cc2c(=O)o1 (stereo not drawn) [Entry 83, 6-(5-Methoxy-1,5-dimethyl-hexyl)-2-octyloxy-thieno[2,3-d][1,3]oxazin-4-one]",,36.9%,

# Results, then the compound that gave them:
k,inhibition at 0.7 µM,Ymax,Structure (SMILES)
0.998 10-3.s-1,,,"CCCCCCCCCCNC(=O)c1sc2nc(NCCCCCCCC)oc(=O)c2c1C [Entry 28, 5-Methyl-2-octylamino-4-oxo-4H-thieno[2,3-d][1,3]oxazine-6-carboxylic acid decylamide]"
2.447 10-3.s-1,,,"CCCCCCCCNc1nc2sc(C(=O)NCCCC)c(C)c2c(=O)o1 [Entry 32, 5-Methyl-2-octylamino-4-oxo-4H-thieno[2,3-d][1,3]oxazine-6-carboxylic acid butylamide]"
0.922 10-3.s-1,,,"CCCCCCCCNc1nc2sc(C(=O)OCCCCCCCC)c(C)c2c(=O)o1 [Entry 20, 5-Methyl-2-octylamino-4-oxo-4H-thieno[2,3-d][1,3]oxazine-6-carboxylic acid octyl ester]"
0.719 10-3.s-1,,,"CCCCCCCCNc1nc2sc(C(=O)NCCc3cccnc3)c(C)c2c(=O)o1 [Entry 50, 5-Methyl-2-octylamino-4-oxo-4H-thieno[2,3-d][1,3]oxazine-6-carboxylic acid (2-pyridin-3-yl-ethyl)-amide]"
0.547 10-3.s-1,,,"CCCCCCCCNc1nc2sc(C(=O)NCC)c(C)c2c(=O)o1 [Entry 33, 5-Methyl-2-octylamino-4-oxo-4H-thieno[2,3-d][1,3]oxazine-6-carboxylic acid ethylamide]"
0.770 10-3.s-1,,,"CCCCCCCCNc1nc2sc(C(=O)NC(CCCC)CCCC)c(C)c2c(=O)o1 [Entry 45, 5-Methyl-2-octylamino-4-oxo-4H-thieno[2,3-d][1,3]oxazine-6-carboxylic acid (1-butyl-pentyl)-amide]"
1.102 10-3.s-1,,0.185,"CCCCCCCCNc1nc2sc(C(=O)NCCOC)c(C)c2c(=O)o1 [Entry 72, 5-Methyl-2-octylamino-4-oxo-4H-thieno(2,3-d)(1,3)oxazine-6-carboxylic acid (2-methoxy-ethyl)-amide]"
0.702 10-3.s-1,,,"CCCCCCCCNc1nc2sc(C(=O)NCC(C)C)c(C)c2c(=O)o1 [Entry 54, 5-Methyl-2-octylamino-4-oxo-4H-thieno[2,3-d][1,3]oxazine-6-carboxylic acid isobutyl-amide]"
0.797 10-3.s-1,,,"CCCCCCCCCCCCNC(=O)c1sc2nc(NCCCCCCCC)oc(=O)c2c1C [Entry 29, 5-Methyl-2-octylamino-4-oxo-4H-thieno[2,3-d][1,3]oxazine-6-carboxylic acid dodecylamide]"
0.537 10-3.s-1,,,"CCCCCCCCNc1nc2sc(C(=O)N(C)C)c(C)c2c(=O)o1 [Entry 22, 5-Methyl-2-octylamino-4-oxo-4H-thieno[2,3-d][1,3]oxazine-6-carboxylic acid dimethylamide]"
0.146 10-3.s-1,,0.616,"CCCCCCCCNc1nc2sc(C(=O)N(CCCC)CCCC)c(C)c2c(=O)o1 [Entry 36, 5-Methyl-2-octylamino-4-oxo-4H-thieno[2,3-d][1,3]oxazine-6-carboxylic acid dibutylamide]"
0.864 10-3.s-1,,,"CCCCCCCCNc1nc2sc(C(=O)NCc3ccccn3)c(C)c2c(=O)o1 [Entry 34, 5-Methyl-2-octylamino-4-oxo-4H-thieno[2,3-d][1,3]oxazine-6-carboxylic acid (pyridin-2-ylmethyl)amide]"
0.794 10-3.s-1,,1.594,"CCCCCCCCNc1nc2sc(C(=O)NCCCOC)c(C)c2c(=O)o1 [Entry 73, 5-Methyl-2-octylamino-4-oxo-4H-thieno(2,3-d)(1,3)oxazine-6-carboxylic acid (3-methoxy-propyl)-amide]"
